Measurements as given in ChEMBL document CHEMBL5579829, “Discovery of a potent CDKs/FLT3 PROTAC with enhanced differentiation and proliferation inhibition for AML” (Eur J Med Chem, 2024).
Active and inactive are the calls of the source. The calls are words filed in the database; no cut-off is given here.

Assays:
HL-60 [1] = assay: Induction of pro-differentiation of human HL-60 cells assessed as increase in CD11b expression at 6.25 nM measured after 3 days by immunostaining-based flow cytometry relative to 500 nM CPS2; assay type: functional; settings: time 3 day
[2] = target: T1, Protein cereblon/Cyclin-dependent kinase 2 (Homo sapiens, UniProt P24941+Q96SW2); assay: Protac activity at CRBN/CDK2 in human HL-60 cells assessed as induction of CDK2 degradation at 10 nM measured after 24 hrs in presence of NEDD8-activated E1 enzyme inhibitor MLN4924 by Western blot analysis; assay type: cell-based
[3] = target: T2, Protein cereblon/Cyclin-dependent kinase 5 (Homo sapiens) (UniProt Q00535+Q96SW2); assay: Protac activity at CRBN/CDK5 in human Kasumi 1 cells assessed as induction of CDK5 degradation at 2 to 32 nM measured after 3 days by Western blot analysis; assay type: cell-based; settings: dose 2-32 nM, time 3.0 day
[4] = target: T3, Protein cereblon/Cyclin-dependent kinase 1 (Homo sapiens) (UniProt P06493+Q96SW2); assay: Protac activity at CRBN/CDK1 in human THP-1 cells assessed as induction of CDK1 degradation at 4 to 64 nM measured after 3 days by Western blot analysis; assay type: cell-based; settings: dose 4-64 nM, time 3.0 day
[5] = target: T1, Protein cereblon/Cyclin-dependent kinase 2; assay: Protac activity at CRBN/CDK2 in human HL-60 cells assessed as induction of CDK2 degradation measured after 24 hrs by Western blot analysis; assay type: cell-based
[6] = target: T1, Protein cereblon/Cyclin-dependent kinase 2; assay: Protac activity at CRBN/CDK2 in human HL-60 cells assessed as induction of CDK2 degradation measured after 24 hrs by Western blot analysis relative to control; assay type: cell-based
HL-60 [7] = assay: Antiproliferative activity against human HL-60 cells measured after 1 to 3 days by CCK-8 assay; assay type: functional, cell-based
[8] = target: T1, Protein cereblon/Cyclin-dependent kinase 2; assay: Protac activity at CRBN/CDK2 in human Kasumi 1 cells assessed as induction of CDK2 degradation at 2 to 32 nM measured after 3 days by Western blot analysis; assay type: cell-based; settings: dose 2-32 nM, time 3.0 day
[9] = target: T1, Protein cereblon/Cyclin-dependent kinase 2; assay: Protac activity at CRBN/CDK2 in human HL-60 cells assessed as induction of CDK2 degradation at 10 nM measured after 24 hrs in presence of proteasome inhibitor MG132 by Western blot analysis; assay type: cell-based
THP-1 = assay: Antiproliferative activity against human THP-1 cells measured after 1 to 3 days by CCK-8 assay; assay type: functional, cell-based
Kasumi 1 = assay: Antiproliferative activity against human Kasumi 1 cells measured after 1 to 3 days by CCK-8 assay; assay type: functional, cell-based
[10] = target: T3, Protein cereblon/Cyclin-dependent kinase 1 (Homo sapiens); assay: Protac activity at CRBN/CDK1 in human HL-60 cells assessed as induction of CDK1 degradation at 4 to 64 nM measured after 3 days by Western blot analysis; assay type: cell-based; settings: dose 4-64 nM, time 3.0 day
HL-60 [11] = assay: Induction of pro-differentiation of human HL-60 cells assessed as CD11b expression at 2 nM measured after 5 days by immunostaining-based flow cytometry (reference value: 10.08 to 10.33%); assay type: functional; settings: time 5 day
[12] = system: Protein cereblon/Receptor-type tyrosine-protein kinase FLT3 (Homo sapiens), P36888+Q96SW2 [UNDEFINED MUTATION]; assay: Protac activity at CRBN/FLT3-ITD mutant in human Kasumi 1 cells assessed as induction of FLT3 degradation at 2 to 32 nM measured after 3 days by Western blot analysis; assay type: cell-based; settings: dose 2-32 nM, time 3.0 day
[13] = target: T4, Protein cereblon/Cyclin-dependent kinase 9 (Homo sapiens, UniProt P50750+Q96SW2); assay: Protac activity at CRBN/CDK9 in human HL-60 cells assessed as induction of CDK9 degradation measured after 3 days by Western blot analysis; assay type: cell-based
Target sequence in this assay (P50750 whole entry): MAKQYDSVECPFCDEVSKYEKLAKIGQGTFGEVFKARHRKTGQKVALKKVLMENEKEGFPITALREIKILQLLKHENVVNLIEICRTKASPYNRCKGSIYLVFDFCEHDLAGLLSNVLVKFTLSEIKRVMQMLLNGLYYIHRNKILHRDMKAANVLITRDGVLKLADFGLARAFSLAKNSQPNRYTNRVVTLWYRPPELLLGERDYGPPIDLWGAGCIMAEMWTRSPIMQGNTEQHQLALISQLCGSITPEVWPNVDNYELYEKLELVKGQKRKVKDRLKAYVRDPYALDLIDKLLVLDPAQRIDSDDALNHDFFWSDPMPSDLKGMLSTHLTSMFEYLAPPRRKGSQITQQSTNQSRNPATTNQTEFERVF
Target sequence in this assay (Q96SW2 whole entry): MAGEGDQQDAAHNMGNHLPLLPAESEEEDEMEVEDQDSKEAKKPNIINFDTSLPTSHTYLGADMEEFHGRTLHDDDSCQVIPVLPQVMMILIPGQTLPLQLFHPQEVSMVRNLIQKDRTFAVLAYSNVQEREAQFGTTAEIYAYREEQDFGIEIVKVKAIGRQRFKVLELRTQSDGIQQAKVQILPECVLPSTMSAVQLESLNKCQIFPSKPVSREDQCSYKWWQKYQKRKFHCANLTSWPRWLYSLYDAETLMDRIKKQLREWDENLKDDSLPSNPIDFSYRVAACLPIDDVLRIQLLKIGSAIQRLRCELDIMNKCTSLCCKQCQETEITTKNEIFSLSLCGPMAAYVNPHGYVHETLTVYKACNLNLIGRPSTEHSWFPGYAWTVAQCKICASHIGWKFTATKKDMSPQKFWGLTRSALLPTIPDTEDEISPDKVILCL

[14] = target: T5, Protein cereblon/Cyclin-dependent kinase 6 (Homo sapiens, UniProt Q00534+Q96SW2); assay: Protac activity at CRBN/CDK6 in human HL-60 cells assessed as induction of CDK6 degradation measured after 3 days by Western blot analysis; assay type: cell-based
Target sequence in this assay (Q00534 whole entry): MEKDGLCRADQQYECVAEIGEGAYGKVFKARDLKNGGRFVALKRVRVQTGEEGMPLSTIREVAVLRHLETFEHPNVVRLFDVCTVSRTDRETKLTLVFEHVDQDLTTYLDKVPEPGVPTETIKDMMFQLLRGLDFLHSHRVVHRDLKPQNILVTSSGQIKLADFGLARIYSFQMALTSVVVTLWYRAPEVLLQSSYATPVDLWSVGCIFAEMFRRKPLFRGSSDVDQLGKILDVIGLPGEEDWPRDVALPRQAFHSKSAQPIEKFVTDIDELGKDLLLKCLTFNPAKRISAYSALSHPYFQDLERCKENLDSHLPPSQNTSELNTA
Target sequence in this assay (Q96SW2 whole entry): as the sequence (Q96SW2 whole entry) above

[15] = target: T5, Protein cereblon/Cyclin-dependent kinase 6; assay: Protac activity at CRBN/CDK6 in human MV4-11 cells assessed as induction of CDK6 degradation at 2 to 32 nM measured after 3 days by Western blot analysis; assay type: cell-based; settings: dose 2-32 nM, time 3.0 day
Target sequence in this assay (Q00534 whole entry, looked up): as the sequence (Q00534 whole entry) above
Target sequence in this assay (Q96SW2 whole entry, looked up): as the sequence (Q96SW2 whole entry) above

HL-60 [16] = assay: Induction of pro-differentiation of human HL-60 cells assessed as CD11b expression at 1 nM measured after 3 days by immunostaining-based flow cytometry (reference value: 8.32 to 10.55%); assay type: functional; settings: time 3 day
NB-4 = assay: Antiproliferative activity against human NB4 cells measured after 1 to 3 days by CCK-8 assay; assay type: functional, cell-based
[17] = target: T3, Protein cereblon/Cyclin-dependent kinase 1 (Homo sapiens); assay: Protac activity at CRBN/CDK1 in human Kasumi 1 cells assessed as induction of CDK1 degradation at 2 to 32 nM measured after 3 days by Western blot analysis; assay type: cell-based; settings: dose 2-32 nM, time 3.0 day
[18] = target: T6, Protein cereblon/Cyclin-dependent kinase 4 (Homo sapiens, UniProt P11802+Q96SW2); assay: Protac activity at CRBN/CDK4 in human THP-1 cells assessed as induction of CDK4 degradation at 4 to 64 nM measured after 3 days by Western blot analysis; assay type: cell-based; settings: dose 4-64 nM, time 3.0 day
Target sequence in this assay (P11802 2-303 limits assumed): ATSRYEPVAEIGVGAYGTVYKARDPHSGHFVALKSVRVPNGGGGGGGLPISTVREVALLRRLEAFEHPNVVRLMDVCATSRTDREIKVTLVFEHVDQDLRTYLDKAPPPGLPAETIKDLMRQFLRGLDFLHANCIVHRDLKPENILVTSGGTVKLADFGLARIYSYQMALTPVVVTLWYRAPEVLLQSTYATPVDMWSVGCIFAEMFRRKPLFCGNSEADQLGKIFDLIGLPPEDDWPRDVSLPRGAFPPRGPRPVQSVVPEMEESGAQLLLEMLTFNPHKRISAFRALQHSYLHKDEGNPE
Target sequence in this assay (Q96SW2 whole entry partner): as the sequence (Q96SW2 whole entry) above

[19] = target: T4, Protein cereblon/Cyclin-dependent kinase 9; assay: Protac activity at CRBN/CDK9 in human Kasumi 1 cells assessed as induction of CDK9 degradation at 2 to 32 nM measured after 3 days by Western blot analysis; assay type: cell-based; settings: dose 2-32 nM, time 3.0 day
Target sequence in this assay (P50750 whole entry, looked up): as the sequence (P50750 whole entry) above
Target sequence in this assay (Q96SW2 whole entry, looked up): as the sequence (Q96SW2 whole entry) above

[20] = target: T6, Protein cereblon/Cyclin-dependent kinase 4; assay: Protac activity at CRBN/CDK4 in human HL-60 cells assessed as induction of CDK4 degradation measured after 3 days by Western blot analysis; assay type: cell-based
Target sequence in this assay (P11802 whole entry): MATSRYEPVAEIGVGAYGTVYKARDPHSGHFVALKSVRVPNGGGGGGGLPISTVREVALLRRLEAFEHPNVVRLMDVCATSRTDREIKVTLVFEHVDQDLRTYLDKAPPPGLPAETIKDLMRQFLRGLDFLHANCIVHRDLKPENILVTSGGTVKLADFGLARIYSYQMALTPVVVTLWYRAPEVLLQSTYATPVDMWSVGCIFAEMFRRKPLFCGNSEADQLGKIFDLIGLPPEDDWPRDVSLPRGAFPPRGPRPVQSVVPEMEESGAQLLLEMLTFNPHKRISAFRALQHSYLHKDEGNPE
Target sequence in this assay (Q96SW2 whole entry): as the sequence (Q96SW2 whole entry) above

[21] = target: T1, Protein cereblon/Cyclin-dependent kinase 2; assay: Protac activity at CRBN/CDK2 in human HL-60 cells assessed as induction of CDK2 degradation at 10 nM measured after 24 hrs in presence of CDK2 inhibitor FN-150 by Western blot analysis; assay type: cell-based
[22] = system: Protein cereblon/Receptor-type tyrosine-protein kinase FLT3 (Homo sapiens), P36888+Q96SW2 [UNDEFINED MUTATION]; assay: Protac activity at CRBN/FLT3-ITD mutant in human THP-1 cells assessed as induction of FLT3 degradation at 4 to 64 nM measured after 3 days by Western blot analysis; assay type: cell-based; settings: dose 4-64 nM, time 3.0 day
MV4-11 = assay: Antiproliferative activity against human MV4-11 cells measured after 1 to 3 days by CCK-8 assay; assay type: functional, cell-based
HL-60 [23] = assay: Induction of pro-differentiation of human HL-60 cells assessed as CD11b expression at 1 nM measured after 5 days by immunostaining-based flow cytometry (reference value: 10.08 to 10.33%); assay type: functional; settings: time 5 day
[24] = target: T1, Protein cereblon/Cyclin-dependent kinase 2; assay: Protac activity at CRBN/CDK2 in human HL-60 cells assessed as induction of CDK2 degradation by Western blot analysis; assay type: cell-based
[25] = target: T2, Protein cereblon/Cyclin-dependent kinase 5 (Homo sapiens); assay: Protac activity at CRBN/CDK5 in human THP-1 cells assessed as induction of CDK5 degradation at 4 to 64 nM measured after 3 days by Western blot analysis; assay type: cell-based; settings: dose 4-64 nM, time 3.0 day
[26] = target: T1, Protein cereblon/Cyclin-dependent kinase 2; assay: Protac activity at CRBN/CDK2 in human MV4-11 cells assessed as induction of CDK2 degradation at 2 to 32 nM measured after 3 days by Western blot analysis; assay type: cell-based; settings: dose 2-32 nM, time 3.0 day
[27] = target: T2, Protein cereblon/Cyclin-dependent kinase 5 (Homo sapiens); assay: Protac activity at CRBN/CDK5 in human MV4-11 cells assessed as induction of CDK5 degradation at 2 to 32 nM measured after 3 days by Western blot analysis; assay type: cell-based; settings: dose 2-32 nM, time 3.0 day
[28] = target: T6, Protein cereblon/Cyclin-dependent kinase 4; assay: Protac activity at CRBN/CDK4 in human MV4-11 cells assessed as induction of CDK4 degradation at 2 to 32 nM measured after 3 days by Western blot analysis; assay type: cell-based; settings: dose 2-32 nM, time 3.0 day
Target sequence in this assay (P11802 2-303 limits assumed): as the sequence (P11802 2-303 limits assumed) above
Target sequence in this assay (Q96SW2 whole entry partner): as the sequence (Q96SW2 whole entry) above

[29] = target: T1, Protein cereblon/Cyclin-dependent kinase 2; assay: Protac activity at CRBN/CDK2 in human HL-60 cells assessed as induction of CDK2 degradation measured after 3 days by Western blot analysis; assay type: cell-based

T3 sequence (P06493 whole entry, looked up): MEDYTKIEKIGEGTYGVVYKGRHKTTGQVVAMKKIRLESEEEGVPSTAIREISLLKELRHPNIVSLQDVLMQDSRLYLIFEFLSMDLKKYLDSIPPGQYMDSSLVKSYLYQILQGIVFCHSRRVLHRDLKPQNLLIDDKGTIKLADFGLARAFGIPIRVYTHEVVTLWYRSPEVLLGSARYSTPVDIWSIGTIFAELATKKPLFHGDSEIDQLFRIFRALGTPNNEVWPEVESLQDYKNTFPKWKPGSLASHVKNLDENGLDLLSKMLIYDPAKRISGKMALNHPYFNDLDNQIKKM
T3 sequence (Q96SW2 whole entry, looked up): as the sequence (Q96SW2 whole entry) above
T2 sequence (Q00535 whole entry, looked up): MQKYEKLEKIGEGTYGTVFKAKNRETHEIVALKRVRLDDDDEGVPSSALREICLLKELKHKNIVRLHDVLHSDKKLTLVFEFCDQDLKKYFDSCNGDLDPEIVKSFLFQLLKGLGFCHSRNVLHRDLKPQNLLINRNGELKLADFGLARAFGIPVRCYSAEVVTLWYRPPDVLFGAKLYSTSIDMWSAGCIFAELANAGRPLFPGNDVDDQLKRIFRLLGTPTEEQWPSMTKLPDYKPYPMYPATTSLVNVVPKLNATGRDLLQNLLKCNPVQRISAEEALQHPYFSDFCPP
T2 sequence (Q96SW2 whole entry, looked up): as the sequence (Q96SW2 whole entry) above
Chain of Protein cereblon/Receptor-type tyrosine-protein kinase FLT3 (Homo sapiens), P36888+Q96SW2 [UNDEFINED MUTATION] (P36888 whole entry, looked up, stated change not applied): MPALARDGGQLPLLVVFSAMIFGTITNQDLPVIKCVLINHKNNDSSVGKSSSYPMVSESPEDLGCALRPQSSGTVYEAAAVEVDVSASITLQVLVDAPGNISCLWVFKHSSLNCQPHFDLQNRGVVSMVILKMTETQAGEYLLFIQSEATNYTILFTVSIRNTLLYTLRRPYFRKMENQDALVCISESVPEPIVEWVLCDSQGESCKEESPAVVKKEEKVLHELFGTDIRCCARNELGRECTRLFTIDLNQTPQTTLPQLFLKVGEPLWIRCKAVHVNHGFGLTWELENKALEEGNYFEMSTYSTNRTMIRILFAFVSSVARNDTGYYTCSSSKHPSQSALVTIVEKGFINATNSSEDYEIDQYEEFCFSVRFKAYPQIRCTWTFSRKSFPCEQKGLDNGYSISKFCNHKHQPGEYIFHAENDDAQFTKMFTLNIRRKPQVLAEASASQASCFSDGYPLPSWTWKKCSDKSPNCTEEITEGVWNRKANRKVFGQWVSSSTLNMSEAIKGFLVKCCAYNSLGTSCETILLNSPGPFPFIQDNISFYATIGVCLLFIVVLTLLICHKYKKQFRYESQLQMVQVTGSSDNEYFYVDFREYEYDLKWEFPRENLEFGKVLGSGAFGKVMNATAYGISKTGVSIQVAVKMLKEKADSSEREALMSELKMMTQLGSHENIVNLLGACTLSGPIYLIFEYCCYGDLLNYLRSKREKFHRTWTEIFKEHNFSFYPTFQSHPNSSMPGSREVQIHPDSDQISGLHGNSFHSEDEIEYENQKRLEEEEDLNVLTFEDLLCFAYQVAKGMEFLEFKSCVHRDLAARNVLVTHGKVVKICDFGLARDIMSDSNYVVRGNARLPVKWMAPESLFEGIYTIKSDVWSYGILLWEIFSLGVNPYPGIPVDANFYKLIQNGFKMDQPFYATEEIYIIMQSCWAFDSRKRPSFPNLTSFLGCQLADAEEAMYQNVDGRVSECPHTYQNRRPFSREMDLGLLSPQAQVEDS
Chain of Protein cereblon/Receptor-type tyrosine-protein kinase FLT3 (Homo sapiens), P36888+Q96SW2 [UNDEFINED MUTATION] (Q96SW2 whole entry, looked up, stated change not applied): as the sequence (Q96SW2 whole entry) above

O=C1CCC(N2C(=O)c3ccc(N4CCC(CN5CCN(Cc6ccc(NC(=O)c7n[nH]cc7Nc7ncnc8[nH]ccc78)cc6)CC5)CC4)cc3C2=O)C(=O)N1 (stereo not drawn)
fold change (FC) (HL-60 [1]): 2.2
Activity [2]: inactive
Activity [3]: inactive
Activity [4]: inactive
DC50 [5]: 18.7 nM
Emax [6]: 86.8%
IC50 (HL-60 [7]): 10.5 nM
Activity [8]: Active
Activity [9]: inactive
IC50 (THP-1): 37.1 nM
IC50 (Kasumi 1): 3.99 nM
Activity [10]: inactive
Activity (HL-60 [11]): 36.57%
Activity [12]: Active
DC50 [13]: 4.34 nM
DC50 [14]: 2.71 nM
Activity [15]: Active
Activity (HL-60 [16]): 23.74%
IC50 (NB-4): 4.94 nM
Activity [17]: inactive
Activity [18]: Active
Activity [19]: Active
DC50 [20]: 4.41 nM
Activity [21]: inactive
Activity [22]: Active
IC50 (MV4-11): 2.9 nM
Activity (HL-60 [23]): 29.85%
DC50 [24]: 12.7 nM
Activity [25]: inactive
Activity [26]: Active
Activity [27]: inactive
Activity [28]: Active
DC50 [29]: 4.74 nM
